In patent publication US11793794B2, “Combination therapy for treating or preventing depression or other mood diseases” (YALE UNIVERSITY, priority 2018, dated 2023):

Test system: patients with major depression
Test: double-blind placebo-controlled crossover study: rapamycin or placebo 2 hours before ketamine infusion, depression severity (MADRS)
Format: in vivo, human
Procedure: The present studies address a longstanding question in the field—whether the antidepressant effects of ketamine depend upon its capacity to stimulate a key protein known as the mechanistic target for rapamycin (mTOR). If that is indeed the case, ketamine's effects should be reduced when mTOR is inhibited. To test this hypothesis, a double-blind placebo-controlled crossover study was conducted under fully randomized conditions, whereby one set of patients was treated with the mTOR inhibitor rapamycin, an FDA approved drug that is currently used to treat certain immune disorders and cancers.
In this design, symptomatic antidepressant-treated patients with major depression who have a history of non-response to at least one prior antidepressant trial were recruited and studied over 3 years. Participants completed two ketamine infusion test days separated by at least two weeks. On each ketamine test day, patients were randomized to take a “loading dose” of rapamycin or placebo 2 hours before receiving an intravenous infusion of ketamine. The primary outcome measure of the study was the severity of depression, as measured by the Montgomery Åsberg Depression Rating Scale (MADRS). […]
Depression severity was assessed at baseline, and at 4 h, 24 h, 1 week, and 2 weeks post treatment. […]

`CNC1(c2ccccc2Cl)CCCCC1=O` (racemic) [ketamine, (RS)-2-(2-Chlorophenyl)-2-(methylamino)cyclohexanone] was tested, and the time to relapse (placebo prior to 0.5 mg/kg iv ketamine, MADRS) was at most 2 weeks and the “duration of benefits produced by ketamine” value (single ketamine infusion without rapamycin) was “a few days”.
